According to the supplement of paper PMC10307832:

Tests used:
Assay in all cases: relative viability (nuclei count vs DMSO), 5 days (fraction); higher = more cells survive
[1] = compound: CC(C)N(CCCNC(=O)Nc1ccc(C(C)(C)C)cc1)C[C@H]1O[C@@H](n2ccc3c(N)ncnc32)[C@H](O)[C@@H]1O + C[C@]1(O)C[C@@H](c2nc(-c3ccc4ccc(-c5ccccc5)nc4c3)c3c(N)nccn32)C1 [Linsitinib] (partner 1 µM)
How it was run: (§1)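 Each reported value is a median over duplicate plates. It expresses relative viability: treated-well nuclei count divided by vehicle-well nuclei count. Lung cancer cell lines in 1536-well plates were dosed by pin tool a day after seeding, alone with one drug or with a fixed anchor-drug dose plus five library-drug doses (not always all listed) in √10 steps, and nuclei were counted after 5 days.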

Shikonin + Decitabine = compound: CC(C)=CC[C@@H](O)C1=CC(=O)c2c(O)ccc(O)c2C1=O [Shikonin] + Nc1ncn([C@H]2C[C@H](O)[C@@H](CO)O2)c(=O)n1 [Decitabine] (partner 2 µM)
How it was run: as §1

Shikonin + Luminespib = compound: CC(C)=CC[C@@H](O)C1=CC(=O)c2c(O)ccc(O)c2C1=O [Shikonin] + CCNC(=O)c1noc(-c2cc(C(C)C)c(O)cc2O)c1-c1ccc(CN2CCOCC2)cc1 [Luminespib] (partner 0.01 µM)
How it was run: as §1

Shikonin + Phenformin = compound: CC(C)=CC[C@@H](O)C1=CC(=O)c2c(O)ccc(O)c2C1=O [Shikonin] + N=C(N)NC(=N)NCCc1ccccc1 [Phenformin] (partner 250 µM)
How it was run: as §1

| Cell Line | relative viability ([1]; first compound 0.08 µM) | relative viability ([1]; first compound 0.253 µM) | relative viability ([1]; first compound 0.8 µM) | relative viability ([1]; first compound 2.53 µM) | relative viability ([1]; first compound 8 µM) | relative viability (Shikonin + Decitabine; first compound 0.01 µM) | relative viability (Shikonin + Decitabine; first compound 0.1 µM) | relative viability (Shikonin + Decitabine; first compound 0.3162 µM) | relative viability (Shikonin + Decitabine; first compound 1 µM) | relative viability (Shikonin + Luminespib; first compound 0.01 µM) | relative viability (Shikonin + Luminespib; first compound 0.1 µM) | relative viability (Shikonin + Luminespib; first compound 0.3162 µM) | relative viability (Shikonin + Luminespib; first compound 1 µM) | relative viability (Shikonin + Phenformin; first compound 0.01 µM) | relative viability (Shikonin + Phenformin; first compound 0.1 µM) | relative viability (Shikonin + Phenformin; first compound 0.3162 µM) | relative viability (Shikonin + Phenformin; first compound 1 µM) |
| --- | --- | --- | --- | --- | --- | --- | --- | --- | --- | --- | --- | --- | --- | --- | --- | --- | --- |
| BEN | 0.819 | 0.849 | 0.924 | 1.01 | 0.865 | 0.658 | 0.787 | 0.707 | 0.767 | 0.505 | 0.469 | 0.474 | 0.849 | 0.298 | 0.286 | 0.279 | 0.232 |
| LCLC-103H | 1.04 | 0.887 | 0.959 | 1.04 | 0.917 | 0.711 | 0.727 | 0.74 | 0.75 | 1.01 | 1.17 | 1.06 | 0.993 | 0.372 | 0.335 | 0.341 | 0.34 |
| EKVX | 0.941 | 0.972 | 0.914 | 0.943 | 0.927 | 0.295 | 0.367 | 0.312 | 0.584 | 0.907 | 0.892 | 0.915 | 0.922 | 0.213 | 0.229 | 0.233 | 0.243 |
| LXF-289 | 0.994 | 1.03 | 0.951 | 1.01 | 0.928 | 0.356 | 0.342 | 0.453 | 0.378 | 0.721 | 0.625 | 0.604 | 0.814 | 0.533 | 0.526 | 0.535 | 0.535 |
| ABC-1 | 0.978 | 0.95 | – | 0.709 | 0.905 | 1.33 | 1.28 | 1.21 | 1.02 | 0.713 | 0.753 | 0.4 | 0.17 | 0.247 | 0.23 | 0.206 | 0.188 |
| NCI-H727 | 0.333 | 0.281 | 0.286 | 0.359 | 0.209 | 0.893 | 1.02 | 0.927 | 0.883 | 0.412 | 0.462 | 0.233 | 0.329 | 0.523 | 0.604 | 0.579 | 0.543 |
| NCI-H2087 | 1.06 | 1.14 | 0.998 | 1.18 | 0.965 | 0.283 | 0.263 | 0.278 | 0.294 | 0.185 | 0.167 | 0.156 | 0.153 | 0.458 | 0.484 | 0.447 | 0.463 |
| NCI-H1793 | 0.818 | – | 0.747 | 0.86 | 0.784 | 0.513 | 0.565 | 0.451 | 0.456 | 0.164 | 0.196 | 0.155 | 0.535 | 0.424 | 0.417 | 0.41 | 0.404 |
| LC-2-ad | 0.886 | 0.856 | 0.818 | 0.79 | 0.824 | 0.75 | 0.849 | 0.874 | 0.89 | 0.934 | 1.11 | 1.08 | 1.07 | 0.553 | 0.643 | 0.592 | 0.667 |
| COR-L 105 | 0.805 | 1.18 | 1.07 | 0.727 | 0.896 | 0.64 | 0.703 | 0.625 | 0.477 | 0.787 | 0.758 | 0.83 | 0.74 | 0.452 | 0.507 | 0.423 | 0.466 |
| NCI-H1355 | 0.751 | 0.768 | – | 0.859 | 0.843 | 0.339 | 0.4 | 0.38 | 0.337 | 0.724 | 0.795 | 0.79 | 0.714 | 0.438 | 0.483 | 0.46 | 0.476 |
| H3255 | 0.804 | 0.958 | 0.947 | 0.994 | 0.84 | 0.606 | 0.658 | 0.663 | 0.503 | 0.869 | 0.973 | 1.05 | 0.865 | 0.398 | 0.384 | 0.353 | 0.35 |
| NCI-H2009 | 1.18 | 1.21 | 1.18 | 1.13 | 0.958 | 0.335 | 0.399 | 0.399 | 0.222 | 1.1 | 1.16 | 1 | 0.876 | 0.475 | 0.568 | 0.433 | 0.181 |
| NCI-H1734 | 0.833 | 0.862 | 0.88 | 0.901 | 0.874 | 0.475 | 0.566 | 0.571 | 0.474 | 0.173 | 0.199 | 0.216 | 0.131 | 0.414 | 0.432 | 0.34 | 0.425 |
| HOP-62 | 0.859 | 0.924 | 0.989 | 0.896 | 0.768 | 0.24 | 0.222 | 0.205 | 0.212 | 0.975 | 0.763 | 0.96 | 0.914 | 0.762 | 0.694 | 0.744 | 0.723 |
| LOU-NH91 | 0.944 | 0.873 | – | 0.998 | 0.918 | 0.787 | 0.879 | 0.856 | 0.816 | 0.317 | 0.358 | 0.382 | 0.332 | 0.685 | 0.755 | 0.754 | 0.715 |

| Cell Line | relative viability ([1]; first compound 0.08 µM) | relative viability ([1]; first compound 0.253 µM) | relative viability ([1]; first compound 0.8 µM) | relative viability ([1]; first compound 2.53 µM) | relative viability ([1]; first compound 8 µM) | relative viability (Shikonin + Decitabine; first compound 0.01 µM) | relative viability (Shikonin + Decitabine; first compound 0.1 µM) | relative viability (Shikonin + Decitabine; first compound 0.3162 µM) | relative viability (Shikonin + Decitabine; first compound 1 µM) | relative viability (Shikonin + Luminespib; first compound 0.01 µM) | relative viability (Shikonin + Luminespib; first compound 0.1 µM) | relative viability (Shikonin + Luminespib; first compound 0.3162 µM) | relative viability (Shikonin + Luminespib; first compound 1 µM) | relative viability (Shikonin + Phenformin; first compound 0.01 µM) | relative viability (Shikonin + Phenformin; first compound 0.1 µM) | relative viability (Shikonin + Phenformin; first compound 0.3162 µM) | relative viability (Shikonin + Phenformin; first compound 1 µM) |
| --- | --- | --- | --- | --- | --- | --- | --- | --- | --- | --- | --- | --- | --- | --- | --- | --- | --- |
| NCI-H23 | 0.57 | – | 0.556 | 0.577 | 0.592 | 0.335 | 0.306 | 0.333 | 0.277 | 0.226 | 0.196 | 0.227 | 0.143 | 0.864 | 0.812 | 0.849 | 0.717 |
| RERF-LC-KJ | 0.85 | 0.93 | 0.895 | 0.897 | 0.794 | 0.782 | 0.703 | 0.636 | 0.653 | 1.2 | 1.29 | 1.2 | 1.11 | 0.374 | 0.433 | 0.505 | 0.36 |
| NCI-H1437 | 0.974 | 1.03 | 1.16 | 1.05 | 0.936 | 0.607 | 0.594 | 0.524 | 0.536 | 1.17 | 1.18 | 1.1 | 1.1 | 0.299 | 0.338 | 0.337 | 0.321 |
| NCI-H596 | 0.991 | 0.926 | 1.02 | 1.08 | 1.21 | 1.08 | 1.03 | 0.981 | 1.25 | 1.14 | 1.22 | 1.16 | 1.13 | 0.798 | 0.858 | 0.893 | 0.897 |
| NCI-H1666 | 0.794 | 0.925 | 0.859 | 0.85 | 0.781 | 0.668 | 0.779 | 0.82 | 0.734 | 0.986 | 1.08 | 0.932 | 1.04 | 0.558 | 0.605 | 0.552 | 0.548 |
| NCI-H1651 | 0.99 | 0.983 | 0.965 | 1.11 | 0.987 | 0.621 | 0.656 | 0.66 | 0.641 | 0.914 | 0.821 | 0.714 | 0.984 | 0.381 | 0.377 | 0.281 | 0.349 |
| NCI-H1755 | 1.01 | 0.997 | 0.894 | 0.916 | 0.836 | 0.735 | 0.768 | 0.761 | 0.712 | 0.428 | 0.439 | 0.576 | 0.378 | 0.696 | 0.668 | 0.659 | 0.55 |
| NCI-H838 | 0.938 | 0.952 | 0.99 | 1.01 | 0.875 | 0.476 | 0.413 | 0.442 | 0.468 | 0.369 | 0.237 | 0.317 | 0.258 | 0.547 | 0.722 | 0.608 | 0.578 |
| HARA | 0.885 | 0.845 | 0.868 | 0.794 | 0.906 | 0.516 | 0.674 | 0.691 | 0.591 | 0.864 | 0.841 | 0.775 | 0.936 | 0.431 | 0.707 | 0.538 | 0.491 |
| NCI-H650 | 0.757 | 0.732 | 1.04 | 0.791 | 0.704 | 0.295 | 0.314 | 0.334 | 0.27 | 0.678 | 0.822 | 0.79 | 0.61 | 0.462 | 0.462 | 0.447 | 0.426 |
| NCI-H2347 | 1 | 0.95 | 0.868 | 1.02 | 0.97 | 0.646 | 0.623 | 0.659 | 0.597 | 0.573 | 0.477 | 0.471 | 0.526 | 0.488 | 0.384 | 0.31 | 0.313 |
| LCLC-97TM1 | 0.195 | – | 0.133 | 0.158 | 0.191 | 0.257 | 0.232 | 0.215 | 0.242 | 0.833 | 0.776 | 0.878 | 0.717 | 0.495 | 0.449 | 0.437 | 0.472 |
| EPLC-272H | 1.12 | 1.09 | 1.05 | 1.03 | 1.05 | 0.344 | 0.387 | 0.371 | 0.358 | 0.167 | 0.303 | 0.209 | 0.261 | 0.282 | 0.309 | 0.255 | 0.298 |
| NCI-H1915 | 1.13 | 1.15 | 1.08 | 1.06 | 1.03 | 0.271 | 0.286 | 0.268 | 0.258 | 1 | 0.758 | 0.849 | 0.85 | 0.383 | 0.396 | 0.368 | 0.395 |
| NCI-H3122 | 1.03 | 0.989 | 0.919 | 1.01 | 0.938 | 0.485 | 0.467 | 0.443 | 0.458 | 0.0973 | 0.0926 | 0.0903 | 0.0968 | 0.391 | 0.417 | 0.391 | 0.399 |
